#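 Grown in 96-well plates, cells were treated for 48 hours with each compound at five concentrations. Insufficient inhibition: endpoint recorded as highest concentration tested. At the GI50, growth is halved. The concentration for full growth arrest is given as TGI.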
# Key:
# Assay in all cases: DTP human tumour cell line panel, 48 h
# SK-MEL-2 melanoma = system: SK-MEL-2 melanoma
# SK-MEL-5 melanoma = system: SK-MEL-5 melanoma
# OVCAR-4 ovarian = system: OVCAR-4 ovarian
# IGROV1 ovarian = system: IGROV1 ovarian
# HOP-62 NSCLC = system: HOP-62 NSCLC
# HS 578T breast = system: HS 578T breast
# OVCAR-8 ovarian = system: OVCAR-8 ovarian
# LOX IMVI melanoma = system: LOX IMVI melanoma
# KM12 colon = system: KM12 colon
# UO-31 renal = system: UO-31 renal
# NCI-H23 lung = system: NCI-H23 lung
# UACC-62 melanoma = system: UACC-62 melanoma
# M14 melanoma = system: M14 melanoma
# PC-3 prostate = system: PC-3 prostate
# ACHN renal = system: ACHN renal
# CCRF-CEM leukemia = system: CCRF-CEM leukemia
# A498 renal = system: A498 renal
# A549 NSCLC = system: A549 NSCLC
# OVCAR-3 ovarian = system: OVCAR-3 ovarian
# NCI-H226 lung = system: NCI-H226 lung
# SR leukemia = system: SR leukemia
# OVCAR-5 ovarian = system: OVCAR-5 ovarian
# NCI/ADR-RES ovarian = system: NCI/ADR-RES ovarian
# HCC-2998 colon = system: HCC-2998 colon
# HOP-92 NSCLC = system: HOP-92 NSCLC
# SK-OV-3 ovarian = system: SK-OV-3 ovarian
# MOLT-4 leukemia = system: MOLT-4 leukemia
# SN12C renal = system: SN12C renal
# TK-10 renal = system: TK-10 renal
# SNB-19 CNS = system: SNB-19 CNS
# SF-539 CNS = system: SF-539 CNS
# SNB-75 CNS = system: SNB-75 CNS
# SK-MEL-28 melanoma = system: SK-MEL-28 melanoma
# U251 CNS = system: U251 CNS
# HCT-15 colon = system: HCT-15 colon
# K-562 leukemia = system: K-562 leukemia
# T-47D breast = system: T-47D breast
# SW-620 colon = system: SW-620 colon
# 786-0 renal = system: 786-0 renal
# RXF 393 renal = system: RXF 393 renal
# NCI-H460 lung = system: NCI-H460 lung
# NCI-H522 lung = system: NCI-H522 lung
# DU-145 prostate = system: DU-145 prostate
# UACC-257 melanoma = system: UACC-257 melanoma
# BT-549 breast = system: BT-549 breast
# MDA-MB-435 = system: MDA-MB-435
# SF-268 CNS = system: SF-268 CNS
# HCT-116 colon = system: HCT-116 colon
# RPMI-8226 leukemia = system: RPMI-8226 leukemia
# MCF7 breast = system: MCF7 breast
# HT29 colon = system: HT29 colon
# HL-60(TB) leukemia = system: HL-60(TB) leukemia
# MDA-MB-231 breast = system: MDA-MB-231 breast
# COLO 205 colon = system: COLO 205 colon
# MALME-3M melanoma = system: MALME-3M melanoma
# SF-295 CNS = system: SF-295 CNS
# CAKI-1 renal = system: CAKI-1 renal
smiles,measurement,setting,value
CCOC(=O)Nc1nc2cc(OCC)ccc2s1,GI50,SK-MEL-2 melanoma,16.3 µM
same,TGI,SK-MEL-2 melanoma,> 100 µM
same,GI50,SK-MEL-5 melanoma,8.44 µM
same,TGI,SK-MEL-5 melanoma,> 100 µM
same,GI50,OVCAR-4 ovarian,> 100 µM
same,TGI,OVCAR-4 ovarian,> 100 µM
same,GI50,IGROV1 ovarian,> 91.1 µM
same,TGI,IGROV1 ovarian,> 100 µM
same,GI50,HOP-62 NSCLC,38.4 µM
same,TGI,HOP-62 NSCLC,> 100 µM
same,GI50,HS 578T breast,50 µM
same,TGI,HS 578T breast,> 100 µM
same,GI50,OVCAR-8 ovarian,> 76.1 µM
same,TGI,OVCAR-8 ovarian,> 100 µM
same,GI50,LOX IMVI melanoma,> 47.4 µM
same,TGI,LOX IMVI melanoma,> 100 µM
same,GI50,KM12 colon,3.86 µM
same,TGI,KM12 colon,> 100 µM
same,GI50,UO-31 renal,> 100 µM
same,TGI,UO-31 renal,> 100 µM
same,GI50,NCI-H23 lung,> 100 µM
same,TGI,NCI-H23 lung,> 100 µM
same,GI50,UACC-62 melanoma,58.3 µM
same,TGI,UACC-62 melanoma,> 100 µM
same,GI50,M14 melanoma,8.94 µM
same,TGI,M14 melanoma,> 100 µM
same,GI50,PC-3 prostate,> 100 µM
same,TGI,PC-3 prostate,> 100 µM
same,GI50,ACHN renal,> 100 µM
same,TGI,ACHN renal,> 100 µM
same,GI50,CCRF-CEM leukemia,> 100 µM
same,TGI,CCRF-CEM leukemia,> 100 µM
same,GI50,A498 renal,6.46 µM
same,TGI,A498 renal,> 100 µM
same,GI50,A549 NSCLC,9.83 µM
same,TGI,A549 NSCLC,> 100 µM
same,GI50,OVCAR-3 ovarian,35 µM
same,TGI,OVCAR-3 ovarian,> 100 µM
same,GI50,NCI-H226 lung,> 100 µM
same,TGI,NCI-H226 lung,> 100 µM
same,GI50,SR leukemia,1520 nM
same,TGI,SR leukemia,> 100 µM
same,GI50,OVCAR-5 ovarian,> 100 µM
same,TGI,OVCAR-5 ovarian,> 100 µM
same,GI50,NCI/ADR-RES ovarian,6.02 µM
same,TGI,NCI/ADR-RES ovarian,> 100 µM
same,GI50,HCC-2998 colon,> 41.3 µM
same,TGI,HCC-2998 colon,> 100 µM
same,GI50,HOP-92 NSCLC,> 100 µM
same,TGI,HOP-92 NSCLC,> 100 µM
same,GI50,SK-OV-3 ovarian,> 100 µM
same,TGI,SK-OV-3 ovarian,> 100 µM
same,GI50,MOLT-4 leukemia,31.7 µM
same,TGI,MOLT-4 leukemia,> 100 µM
same,GI50,SN12C renal,> 84.4 µM
same,TGI,SN12C renal,> 100 µM
same,GI50,TK-10 renal,> 72.9 µM
same,TGI,TK-10 renal,> 100 µM
same,GI50,SNB-19 CNS,> 100 µM
same,TGI,SNB-19 CNS,> 100 µM
same,GI50,SF-539 CNS,> 100 µM
same,TGI,SF-539 CNS,> 100 µM
same,GI50,SNB-75 CNS,53.8 µM
same,TGI,SNB-75 CNS,> 100 µM
same,GI50,SK-MEL-28 melanoma,> 100 µM
same,TGI,SK-MEL-28 melanoma,> 100 µM
same,GI50,U251 CNS,26.8 µM
same,TGI,U251 CNS,> 100 µM
same,GI50,HCT-15 colon,4.8 µM
same,TGI,HCT-15 colon,> 100 µM
same,GI50,K-562 leukemia,3000 nM
same,TGI,K-562 leukemia,> 100 µM
same,GI50,T-47D breast,35 µM
same,TGI,T-47D breast,> 100 µM
same,GI50,SW-620 colon,4.74 µM
same,TGI,SW-620 colon,> 100 µM
same,GI50,786-0 renal,> 100 µM
same,TGI,786-0 renal,> 100 µM
same,GI50,RXF 393 renal,> 100 µM
same,TGI,RXF 393 renal,> 100 µM
same,GI50,NCI-H460 lung,8.02 µM
same,TGI,NCI-H460 lung,> 100 µM
same,GI50,NCI-H522 lung,6.05 µM
same,TGI,NCI-H522 lung,> 100 µM
same,GI50,DU-145 prostate,> 100 µM
same,TGI,DU-145 prostate,> 100 µM
same,GI50,UACC-257 melanoma,> 100 µM
same,TGI,UACC-257 melanoma,> 100 µM
same,GI50,BT-549 breast,> 100 µM
same,TGI,BT-549 breast,> 100 µM
same,GI50,MDA-MB-435,923 nM
same,TGI,MDA-MB-435,5.15 µM
same,GI50,SF-268 CNS,> 79.7 µM
same,TGI,SF-268 CNS,> 100 µM
same,GI50,HCT-116 colon,6.82 µM
same,TGI,HCT-116 colon,> 100 µM
same,GI50,RPMI-8226 leukemia,> 65.8 µM
same,TGI,RPMI-8226 leukemia,> 100 µM
same,GI50,MCF7 breast,5.01 µM
same,TGI,MCF7 breast,> 100 µM
same,GI50,HT29 colon,4.26 µM
same,TGI,HT29 colon,> 100 µM
same,GI50,HL-60(TB) leukemia,4.85 µM
same,TGI,HL-60(TB) leukemia,> 100 µM
same,GI50,MDA-MB-231 breast,> 100 µM
same,TGI,MDA-MB-231 breast,> 100 µM
same,GI50,COLO 205 colon,7.84 µM
same,TGI,COLO 205 colon,> 100 µM
same,GI50,MALME-3M melanoma,> 100 µM
same,TGI,MALME-3M melanoma,> 100 µM
same,GI50,SF-295 CNS,> 100 µM
same,TGI,SF-295 CNS,> 100 µM
same,GI50,CAKI-1 renal,> 75.4 µM
same,TGI,CAKI-1 renal,> 100 µM

# Source: PubChem BioAssay (NCI)
